Measurements reported in patent publication US5008187A, “Antifungal fermentation product” (Merck & Co., Inc., priority 1988, dated 1991).
In brackets after ≈: the same amount, converted by molar mass. Entries after “also recorded” stand apart in the source; their conditions may differ.

Columns and labels:
[1] = system: filamentous fungi and yeast organisms; assay: antifungal activity (summary statement); format: cell-based; conditions: in words
Experimental: (§1) Minimum inhibiting concentration against representative fungal organisms may be seen in the results of tests carried out by the agar dilution method in which an aqueous suspension of the metabolite was solubilized by adding a small amount of methanol. Further dilutions were made employing water. The diluted samples were added to molten agar to produce final concentrations of 512 μg/ml and lower. The molten agar was yeast nitrogen base agar prepared by adding 1 part of sterile yeast nitrogen base agar to 9 parts 2% Difco agar.

[2] = system: bacteria; assay: antibacterial activity (summary statement); format: cell-based; conditions: in words, no data shown
[3] = system: C. rugosa; assay: agar dilution MIC; format: cell-based; conditions: strain MY1022, yeast nitrogen base agar
Experimental: as §1

[4] = system: Cryptococcus neoformans; assay: agar dilution MIC; format: cell-based
Experimental: as §1

[5] = system: Ustilago maydis; assay: agar dilution MIC; format: cell-based; conditions: strain MF1996, yeast nitrogen base agar
Experimental: as §1

[6] = system: Aspergillus fumigatus; assay: agar dilution MIC; format: cell-based; conditions: strain MF4839, yeast nitrogen base agar
Experimental: as §1

[7] = system: Candida pseudotropicalis; assay: agar dilution MIC; format: cell-based; conditions: strain MY1100, yeast nitrogen base agar
Experimental: as §1

[8] = system: Cercospora beticola; assay: agar dilution MIC; format: cell-based; conditions: strain MF4608, yeast nitrogen base agar
Experimental: as §1

[9] = system: Trichoderma lignorum; assay: agar dilution MIC; format: cell-based; conditions: strain MF3560, yeast nitrogen base agar
Experimental: as §1

[10] = system: Cephalosporium sp.; assay: agar dilution MIC; format: cell-based; conditions: strain MF4641, yeast nitrogen base agar
Experimental: as §1

[11] = system: Ceratocystis ulmi; assay: agar dilution MIC; format: cell-based; conditions: strain MF4042, yeast nitrogen base agar
Experimental: as §1

[12] = system: Cr. laurentii; assay: agar dilution MIC; format: cell-based
Experimental: as §1

[13] = system: Trichoderma sp.; assay: agar dilution MIC; format: cell-based; conditions: strain MF4064, yeast nitrogen base agar
Experimental: as §1

[14] = system: Debaryomyces guilliermondi; assay: agar dilution MIC; format: cell-based; conditions: strain MY321, yeast nitrogen base agar
Experimental: as §1

[15] = system: Scopulariopsi communis; assay: agar dilution MIC; format: cell-based; conditions: strain MF3769, yeast nitrogen base agar
Experimental: as §1

[16] = system: Aspergillus niger; assay: agar dilution MIC; format: cell-based
Experimental: as §1

[17] = system: Penicillium sp.; assay: agar dilution MIC; format: cell-based
Experimental: as §1

[18] = system: C. tropicalis; assay: agar dilution MIC; format: cell-based; conditions: strain MY1012, yeast nitrogen base agar
Experimental: as §1

[19] = system: A. flavus; assay: agar dilution MIC; format: cell-based; conditions: strain MF383, yeast nitrogen base agar
Experimental: as §1

[20] = system: Fusarium oxysporium; assay: agar dilution MIC; format: cell-based; conditions: strain MF4014, yeast nitrogen base agar
Experimental: as §1

[21] = system: Cr. albidus; assay: agar dilution MIC; format: cell-based; conditions: strain MY1070, yeast nitrogen base agar
Experimental: as §1

[22] = system: Verticillium serrae; assay: agar dilution MIC; format: cell-based; conditions: strain MF3794, yeast nitrogen base agar
Experimental: as §1

[23] = solubility in organic solvents; format: physicochemical; conditions: organic solvents such as methanol, ethanol, dimethylformamide, dimethyl sulfoxide, ethyl acetate

CCCCCCC(C)CC(C)=CC(C=C(C)C=CC(O)C(C)(C)c1cc(O)c(C2OC(CO)CC(O)C2O)c(=O)o1)CO (centres unmarked) [Compound I]
antifungal activity [1]: active against a moderately broad spectrum of filamentous fungi and yeast organisms; also recorded: excellent antifungal properties against many filamentous and many yeast organisms
antibacterial properties [2]: antibacterial properties
MIC [3]: 25 µg/mL (≈ 41.2 µM)
MIC ([4]; strain MY1046, yeast nitrogen base agar): 8 µg/mL (≈ 13.2 µM)
MIC ([4]; strain MY1050, yeast nitrogen base agar): 32 µg/mL (≈ 52.7 µM)
MIC ([4]; strain MY1051, yeast nitrogen base agar): 128 µg/mL (≈ 211 µM)
MIC [5]: 8 µg/mL (≈ 13.2 µM)
MIC [6]: 64 µg/mL (≈ 105 µM)
MIC [7]: 25 µg/mL (≈ 41.2 µM)
MIC [8]: 4 µg/mL (≈ 6.59 µM)
MIC [9]: 6.2 µg/mL (≈ 10.2 µM)
MIC [10]: 12.5 µg/mL (≈ 20.6 µM)
MIC [11]: 25 µg/mL (≈ 41.2 µM)
MIC ([12]; strain MY1073, yeast nitrogen base agar): 6.2 µg/mL (≈ 10.2 µM)
MIC ([12]; strain MY1074, yeast nitrogen base agar): 8 µg/mL (≈ 13.2 µM)
MIC ([12]; strain MY1077, yeast nitrogen base agar): 12.5 µg/mL (≈ 20.6 µM)
MIC [13]: 1.6 µg/mL (≈ 2.64 µM)
MIC [14]: 6.2 µg/mL (≈ 10.2 µM)
MIC [15]: 6.2 µg/mL (≈ 10.2 µM)
MIC ([16]; strain MF11, yeast nitrogen base agar): 1.6 µg/mL (≈ 2.64 µM)
MIC ([16]; strain MF442, yeast nitrogen base agar): 3.1 µg/mL (≈ 5.11 µM)
MIC ([17]; strain MF5014, yeast nitrogen base agar): 3.1 µg/mL (≈ 5.11 µM)
MIC ([17]; strain MF5020, yeast nitrogen base agar): 1.6 µg/mL (≈ 2.64 µM)
MIC [18]: 25 µg/mL (≈ 41.2 µM)
MIC [19]: 64 µg/mL (≈ 105 µM)
MIC [20]: 25 µg/mL (≈ 41.2 µM)
MIC [21]: 8 µg/mL (≈ 13.2 µM)
MIC [22]: 25 µg/mL (≈ 41.2 µM)
solubility [23]: soluble
